The target of assay [1] is T1, Estrogen receptor (Homo sapiens, UniProt Q92731+P03372). Conditions: t-47d.
Description: Inhibition of estradiol-stimulated T-47D cell proliferation.
Assay [2] concerns the target T1, Estrogen receptor. As to conditions: t-47d. This is another data set of the same source.
Description: Apparent binding affinity against estradiol-stimulated T-47D cell proliferation
Assay [3] has as its target T2, Estrogen receptor (Mus musculus) (UniProt O08537+P19785). Briefly: (§1) Uterine weight after 9 day treatment at 0.47 ug by oral gavage to ovariectomised mice without estrone. In kind it is functional, tissue-based. Conditions: Uterus.
Assay [4] addresses T2, Estrogen receptor (Mus musculus). Put plainly: (§2) Uterine weight after 9 day treatment at 1.6 ug by oral gavage to ovariectomised mice with estrone. As to conditions: Uterus. In kind it is functional, tissue-based.
Assay [5] has the same target. Briefly: Uterine weight after 9 day treatment at 4.7 ug by oral gavage to ovariectomised mice with estrone. As to conditions: Uterus. In kind it is functional, tissue-based.
The target is the same in assay [6]. Briefly: (§3) Uterine weight after 9 day treatment at 4.7 ug by oral gavage to ovariectomised mice without estrone. Conditions: Uterus. In kind it is functional, tissue-based.
For assay [7] the target is unchanged. Put plainly: (§4) Uterine weight after 9 day treatment at 47 ug by oral gavage to ovariectomised mice without estrone. The format is functional, tissue-based. As to conditions: Uterus.
For assay [8] the target is unchanged. Briefly: Uterine weight after 9 day treatment at 1.6 ug by oral gavage to ovariectomised mice without estrone. In kind it is functional, tissue-based. Conditions: Uterus.
Assay [9] has the same target. Put plainly: (§5) Uterine weight after 9 day treatment at 16 ug by oral gavage to ovariectomised mice with estrone. In kind it is functional, tissue-based. As to conditions: Uterus.
The target is the same in assay [10]. Briefly: Uterine weight after 9 day treatment at 47 ug by oral gavage to ovariectomised mice with estrone. In kind it is functional, tissue-based. As to conditions: Uterus.
For assay [11] the target is unchanged. Briefly: (§6) Uterine weight after 9 day treatment at 0.47 ug by oral gavage to ovariectomised mice with estrone. In kind it is functional, tissue-based. As to conditions: Uterus.
The target of assay [12] is T1, Estrogen receptor. Briefly: Relative Binding Affinity for estrogen receptor in Human Breast cancer or normal uterine cytosol in 3.3%ethanol compared to estradiol. The format is protein assay. As to conditions: Uterus.
Assay [13] deals with T2, Estrogen receptor (Mus musculus). Briefly: (§7) Uterine weight after 9 day treatment at 16 ug by oral gavage to ovariectomised mice without estrone. The format is functional, tissue-based. Conditions: Uterus.
Assay [14] concerns the target T1, Estrogen receptor.
Description: Inhibition of estradiol binding to estrogen receptor in Human Breast cancer cytosol (3.3% ethanol)
Assay [15] deals with T2, Estrogen receptor (Mus musculus). The assay is described as §6. In kind it is functional, tissue-based. As to conditions: Uterus. This is another data set of the same source.
Assay [16] has the same target. Described as §4. As to conditions: Uterus. The format is functional, tissue-based. This is another data set of the same source.
Assay [17] shares this target. Described as §1. The format is functional, tissue-based. As to conditions: Uterus. This is another data set of the same source.
Assay [18] has the same target. The description is as §2. In kind it is functional, tissue-based. As to conditions: Uterus. This is another data set of the same source.
Assay [19] shares this target. Described as §7. In kind it is functional, tissue-based. As to conditions: Uterus. The source holds these as a separate data set.
Assay [20] has the same target. The description is as §3. In kind it is functional, tissue-based. As to conditions: Uterus. This is another data set of the same source.
For assay [21] the target is unchanged. Described as §3. In kind it is functional, tissue-based. As to conditions: Uterus. This is another data set of the same source.
Assay [22] addresses T1, Estrogen receptor. The source holds these as a separate data set.
Description: Apparent inhibition constant for estrogen receptor in Human uterine cytosol in 3.3%ethanol
In assay [23] the target is T2, Estrogen receptor (Mus musculus). The description is as §4. The format is functional, tissue-based. As to conditions: Uterus. The source holds these as a separate data set.
Assay [24] shares this target. The assay is described as §5. In kind it is functional, tissue-based. As to conditions: Uterus. The source holds these as a separate data set.
In assay [25] the target is T1, Estrogen receptor. Briefly: Stimulation of alkaline phosphatase activity in human endometrial Ishikawa cells with 1 nM E2 estradiol. The format is functional, cell-based.

Some results are limits rather than exact numbers.

T2 sequence (O08537 whole entry, looked up): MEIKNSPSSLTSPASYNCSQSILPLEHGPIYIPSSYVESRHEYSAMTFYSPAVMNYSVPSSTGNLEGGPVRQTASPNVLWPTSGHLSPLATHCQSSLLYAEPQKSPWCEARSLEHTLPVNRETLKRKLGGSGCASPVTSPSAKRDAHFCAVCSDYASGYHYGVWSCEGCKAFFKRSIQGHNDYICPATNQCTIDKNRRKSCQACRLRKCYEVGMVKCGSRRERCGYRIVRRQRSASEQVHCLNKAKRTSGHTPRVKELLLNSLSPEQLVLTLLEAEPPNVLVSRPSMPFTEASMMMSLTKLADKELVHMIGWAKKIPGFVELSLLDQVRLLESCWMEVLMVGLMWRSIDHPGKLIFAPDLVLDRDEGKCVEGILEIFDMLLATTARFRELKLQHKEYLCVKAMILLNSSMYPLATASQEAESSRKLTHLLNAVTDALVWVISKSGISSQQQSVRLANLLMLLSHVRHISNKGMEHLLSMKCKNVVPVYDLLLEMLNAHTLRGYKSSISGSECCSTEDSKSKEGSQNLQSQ
T2 sequence (P19785 whole entry, looked up): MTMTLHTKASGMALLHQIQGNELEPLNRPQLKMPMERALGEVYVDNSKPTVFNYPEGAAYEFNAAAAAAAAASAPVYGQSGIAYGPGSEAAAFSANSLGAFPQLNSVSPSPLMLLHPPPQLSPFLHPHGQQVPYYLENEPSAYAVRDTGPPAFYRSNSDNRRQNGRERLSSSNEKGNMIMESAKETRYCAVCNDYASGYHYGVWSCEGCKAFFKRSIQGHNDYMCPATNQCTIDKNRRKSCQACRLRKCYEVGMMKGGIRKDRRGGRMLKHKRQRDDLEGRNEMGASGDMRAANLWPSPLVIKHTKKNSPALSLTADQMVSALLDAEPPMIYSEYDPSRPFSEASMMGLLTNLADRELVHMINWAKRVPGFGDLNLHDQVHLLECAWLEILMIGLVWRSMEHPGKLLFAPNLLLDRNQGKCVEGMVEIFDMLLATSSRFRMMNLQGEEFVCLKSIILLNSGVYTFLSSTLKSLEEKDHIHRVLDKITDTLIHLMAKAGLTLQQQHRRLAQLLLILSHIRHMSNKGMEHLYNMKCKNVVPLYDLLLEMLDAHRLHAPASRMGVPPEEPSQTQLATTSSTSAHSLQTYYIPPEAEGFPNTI

In turn, `Oc1ccc(C2=Cc3ccc(O)cc3OC2c2ccc(OCCN3CCCCC3)cc2)cc1` (stereo unspecified) returned an IC50 on Estrogen receptor [1] of 4.6 nM. Also, the Ki on Estrogen receptor [2] worked out at 0.525 nM.
With `CC1=C(c2ccc(OC(=O)C(C)(C)C)cc2)[C@@H](c2ccc(OCCN3CCCCC3)cc2)Oc2cc(OC(=O)C(C)(C)C)ccc21`, the Weight in [3] was 16.5 mg; in assay [4] it was 88.6 mg; in assay [5], 91.2 mg; in assay [6] it was 19.8 mg; in [7], 18 mg; in [8] it was 17.2 mg. In addition, the Weight in assay [9] was 75.7 mg; in assay [10] it was 61.1 mg; in [11], 83.1 mg; in assay [13], 15.7 mg. Further, the IC50 against Estrogen receptor [1] was 36.2 nM. This compound also registered an RBA on Estrogen receptor [12] of under 0.04. Moreover, the Ki is listed as 4.22 nM at Estrogen receptor [2] and over 270 nM on Estrogen receptor [14].
As to `CC1=C(c2ccc(OC(=O)C(C)(C)C)cc2)[C@H](c2ccc(OCCN3CCCCC3)cc2)Oc2cc(OC(=O)C(C)(C)C)ccc21`, the Weight in assay [3] amounted to 19 mg; in assay [4], 53.4 mg; in [5], 33.3 mg; in assay [6] it was 24.5 mg; in [15], 84 mg; in assay [16] it was 25 mg. In addition, the Weight in [7] came to 21.1 mg; in assay [8], 24.1 mg; in [17], 21 mg; in assay [18], 53 mg; in assay [19] it was 24 mg; in assay [9] it was 28.9 mg. Besides, the Weight stood at 31.7 mg in assay [10]; 72.9 mg in [11]; 24.7 mg in assay [20]; 19.4 mg in assay [13]; 35.3 mg in [21]; 28.1 mg in assay [23]. Besides, in [24], the Weight turned out to be 29.2 mg. Besides, the IC50 against Estrogen receptor [1] is 0.14 nM; against Estrogen receptor [25], 1.3 nM. The Ki at Estrogen receptor [2] is 0.016 nM; at Estrogen receptor [22] it was 11.14 nM; at Estrogen receptor [25], 0.023 nM; on Estrogen receptor [14] it was 4.71 nM.

Source of the values: ChEMBL document CHEMBL1130420 (J Med Chem, 1997).
